Read-outs that look alike come from different tables or passages of the source.
Tests used:
[1] = Miscibility of diamines and triamines with water before and after CO2; type: physicochemical; conditions: 5:1 w/w water:additive; for miscibility with water After addition of CO2: CO2 90 min; for miscibility with water Before addition of CO2: room temperature
Protocol: A 5:1 w/w solution of water and the liquid additive (total volume 5 mL) were mixed together in a glass vial at room temperature. Whether the mixture formed one or two liquid phases was visually observed. Then CO2 was bubbled through the mixture via a single narrow gauge steel needle at a flow rate of ˜5 mL min^−1 for 90 min. Whether the mixture formed one or two phases was visually observed.

[2] = Switchable osmotic pressure (Zimm-Meyerson osmometer, hydrostatic pressure); type: physicochemical
Protocol: The switchable osmotic pressure measurements were conducted on a Zimm-Meyerson osmometer using Sterlitech UTC-80LB toray flat sheet membranes. A 0.1% (w/v) switchable polyamine solution in water was made by dissolving 20 mg of the corresponding polyamine in 20 mL deionized H2O. […] The system was closed with a lid and allowed to reach equilibrium overnight. Measurements of the capillary tube and the control capillary were taken. The draw solution was then taken out of the cell and transferred into a graduated cylinder. Both the draw solution and the solution of the outer cell were carbonated by bubbling CO2 with a gas dispersion tube for 1 h. The draw solution was transferred back into the glass cell of the osmometer, the system was closed and held under an atmosphere of CO2. A constant flow of CO2 was maintained using two gauche needles, one of them connected to a CO2 source with a flow rate of 10 ml/min. The heights taken were height differences of the capillary tube connected to the cell and the control capillary tube. Based on these heights the hydrostatic pressure was calculated using the equation: Π=ρhg where Π is the hydrostatic pressure, ρ is the density of the solution, h is the height of the water column and g is the force of gravity. Hydrostatic pressure is taken to be proportional to osmotic pressure of the solution at equilibrium.

[3] = Viscosity with and without CO2 (capillary viscometer); type: physicochemical; conditions: 104.6 mg in 10 mL H2O
Protocol: In order to study the use of switchable water additives in a method and system for viscosity control, a switchable additive or other molecule of interest was placed in a 50 mL round-bottom flask equipped with a 1 cm magnetic stir-bar and placed on a stir-plate. […] The solution was then transferred in to a Technical Glass Products, Inc. C. F. Opage viscometer with either a 100 or 200 capillary tube. The measurements were taken at room temperature (i.e., from about 15-30° C.) and repeated twice. The solution was transferred back into the round bottom flask and CO2 was introduced to the mixture by bubbling for 30 minutes at a flow rate of 80 ml/min. The carbonated solution was then put into the viscometer and the viscosity was measured three times. The viscosity in centistokes (cS) was calculated from the times the solution took to run through the viscometer.

[4] = Degree of protonation of methylated spermine by carbonated water, 1H NMR; type: physicochemical; conditions: 0.1 M in D2O, room temperature, CO2
Source text: (§1) The spectrum was then acquired.
(§2) This process was repeated.

[5] = 4 M solution; cited from earlier work
[6] = type: physicochemical
Protocol: Specifically, a 1:1:1 (v/v/v) mixture of DBU, water and compound was added to a six dram vial containing a magnetic stirrer and fitted with a rubber septa. […] A second narrow gauge steel needle was inserted to allow venting of the gaseous phase.
When the compound was THF, a single phase miscible liquid mixture was observed.

[7] = Solution conductivity before and after CO2; type: physicochemical
Protocol: The solution conductivities of the materials given below were measured. The mass of each material indicated was weighed into a 150 mL beaker charged with a stir bar along with 100 mL of ultra pure water. The solutions were stirred until visibly dissolved and their conductivity measured. […] All solutions were left to stir overnight to test reproducibility. Solution conductivities were re-recorded giving little change in values. CO2 was bubbled at 10 psi through a fine glass frit tube (to make bubble size as small as possible for greater surface area and therefore faster carbonation) with each solution for 30 minutes. In the case of TBAB and functionalized PMMA, significant amounts of bubbling were observed. Solution conductivities were re-recorded.

[8] = Zeta potential of suspended clay particles; type: physicochemical; conditions: for Zeta Potential: kaolinite clay
Protocol: (§3) Clay fines were weighed and placed into individual vials (0.025 g, Ward's Natural Science Establishment). Kaolinite and montmorillonite were used as received, but illite clay was ground into a powder using a mortar and pestle. Solutions containing additives were made with deionized water (18.2 MΩ/cm, Millipore) and 10 mL was added to the clay fines. A suspension was created using a vortex mixer and subsequently dispensed into a folded capillary cell. The zeta potential was measured using a Malvern Zetasizer instrument. The errors reported on the zeta potential values were the standard deviations of the zeta potential peaks measured.
(§4) Unless specified, all carbon dioxide treatments were conducted with the aqueous solutions prior to addition to the clay fines. For applicable measurements, ultra pure carbon dioxide (Supercritical CO2 Chromatographic Grade, Paxair) was bubbled through the solutions using a syringe.
Another experiment was performed in which CO2 was bubbled through a 1 mM aqueous solution of TMDAB that already contained clay fines (a method referred to as “switching in situ”).

[9] = Reversible protonation monitored by conductivity, fritted glass apparatus; type: physicochemical
Protocol: 1:1 v/v solutions of the various additives and distilled, deionised water were prepared in six dram glass vials and transferred to a fritted glass apparatus which acted as a reaction vessel. The fritted glass apparatus consisted of a long narrow glass tube leading to a fine glass frit having a diameter of approximately 4 cm. The other end of the glass frit was connected to a cylindrical glass tube which held the solution of the additive during contacting with the trigger gas. This apparatus allowed a multiple source of trigger gas bubbles to contact the solution, compared to the single point source of Example 5.
A trigger gas chosen from CO2, air or nitrogen was bubbled through the solution via the glass frit at a flow rate of 110 mL min^−1 as measured by a J&W Scientific ADM 2000 Intelligent Flowmeter (CA, USA). For each conductivity measurement, the solution was transferred back to a six dram vial, cooled to 298 K and measured in triplicate. Conductivity measurements were performed using a Jenway 470 Conductivity Meter (Bibby Scientific, NJ, US) having a cell constant of 1.02 cm^−1.

[10] = pH of 5% (w/v) kaolinite suspensions; type: physicochemical
Protocol: The pH of the following 5% (w/v) kaolinite suspensions were measured: CO2 blank and 1 mM TMDAB and 10 mM TMDAB after CO2-treatment. To investigate the effect of pH on suspension settling behaviour, 5% (w/v) kaolinite suspensions were prepared, and the pH of each suspension was adjusted with HCl and NaOH to match the pH of corresponding treatment conditions. To investigate the effect of ionic strength on suspension settling behaviour, pH was again corrected to match the pH of corresponding treatment conditions, and ionic strength was adjusted with NaCl or ammonium sulphate, assuming all basic sites on the diamine were protonated.

[11] = Zeta potential of suspended clay particles; type: physicochemical
Protocol: as §3, §4

[12] = Degree of protonation by CO2 in D2O by 1H NMR; type: physicochemical; conditions: 0.1 M in D2O
Source text: as §1, §2

[13] = 1 mM TMDAB + 1 h CO2 + […] N2 at 70° C.

CCN(CC)CCCCN(CC)CC [TEDAB, N,N,N′,N′-tetraethyl-1,4-diaminobutane]
miscibility with water After addition of CO2 [1]: miscible
miscibility with water Before addition of CO2 [1]: immiscible

CN(C)C1CCCCC1 [N,N-dimethylcyclohexylamine]
hydrostatic pressure without CO2 ([2]; control experiments, height before CO2 treatment): 580 Pa
hydrostatic pressure with CO2 ([2]; nominal 0.1% (w/v), carbonated 1 h, CO2 atmosphere): 1550 Pa
pressure increase ([2]; ratio with CO2 / without CO2): 2.7
viscosity without CO2 [3]: 1.0 cS
viscosity with CO2 ([3]; CO2 30 minutes): 1.0 cS

CCCN(CCC)CCCCN(CCC)CCC [Pr2NCH2CH2CH2CH2NPr2, N,N,N′,N′-tetrapropyl-1,4-diaminobutane]
miscibility with water After addition of CO2 [1]: immiscible
miscibility with water Before addition of CO2 [1]: immiscible

CN(C)CCCN(C)CCCCN(C)CCCN(C)C [MeSpe, N^1,N^1′-(butane-1,4-diyl)bis(N^1,N^3,N^3-trimethylpropane-1,3-diamine)]
degree of protonation [4]: 93%

[Cl-].[Cl-].[Mg+2] [MgCl2]
osmotic pressure [5]: 800 atm

C1CCC2=NCCCN2CC1 [DBU, 1,8-diazabicyclo-[5.4.0]-undec-7-ene]
solubility of non-ionic amidine form in water [6]: soluble in water

OC[C@H]1O[C@@](CO)(O[C@H]2O[C@H](CO)[C@@H](O)[C@H](O)[C@H]2O)[C@@H](O)[C@@H]1O [sucrose]
osmotic pressure [5]: about 130 atm

CCCC[N+](CCCC)(CCCC)CCCC.[Br-] [[^nBu4N]Br, Tetra-n-butylammonium bromide]
C after 30 mins CO2 [7]: 1781 μS/cm
Initial C [7]: 1892 μS/cm

CN(C)CCCN [H2N(CH2)3NMe2, 3-dimethylamino-1-propylamine]
C after 30 mins CO2 ([7]; CO2 bubbled at 10 psi, 30 minutes): 3360 μS/cm
Initial C ([7]; mass as listed in 100 mL ultra pure water): 398 μS/cm

CN(C)Cc1cc(CN(C)C)cc(CN(C)C)c1 [1,3,5-C6H3(CH2NMe2)3, N,N,N′,N′,N″,N″-1,3,5-benzenetrimethanamine]
miscibility with water After addition of CO2 [1]: miscible
miscibility with water Before addition of CO2 [1]: miscible

CN(C)CCCCN(C)C [TMDAB, N,N,N′,N′-tetramethyl-1,4-diaminobutane]
Zeta Potential, Switching externally ([8]; 1 mM TMDAB): −39.6 ± 6.68 mV
Zeta Potential, Switching in situ ([8]; 1 mM TMDAB): −38.9 ± 8.69 mV
Zeta Potential, Switching externally ([8]; 1 mM TMDAB + 1 h CO2): −5.03 ± 4.46 mV
Zeta Potential, Switching in situ ([8]; 1 mM TMDAB + 1 h CO2): −0.31 ± 4.15 mV
Zeta Potential, Switching externally [8, 13]: −25.0 ± 5.84 mV
Zeta Potential, Switching in situ [8, 13]: −32.5 ± 6.38 mV
Zeta Potential ([8]; 1 mM additive + […] CO2): −5.03 ± 4.46 mV
Zeta Potential ([8]; 1 mM additive): −39.6 ± 6.68 mV
Zeta Potential ([8]; 10 mM additive + […] CO2): −3.35 ± 8.49 mV
Zeta Potential ([8]; 10 mM additive): −50.7 ± 13.1 mV
Zeta Potential ([8]; 0.8 molal additive + 1 h CO2): 2.29 mV
Zeta Potential ([8]; 0.8 molal additive): −17.4 ± 3.92 mV
reduction of conductivity ([9]; 1:1 v/v H2O:amine switched with CO2, 90 minutes at 80° C., N2 through glass frit): approximately 95%
pH ([10]; kaolinite Sample 2, 1 mM TMDAB): 7.13
pH ([10]; kaolinite Sample 2, 1 mM TMDAB + CO2): 4.75
pH ([10]; kaolinite Sample 2, 10 mM TMDAB): 10.41
pH ([10]; kaolinite Sample 2, 10 mM TMDAB + CO2): 5.95
Zeta Potential ([11]; 1 mM additive + […] CO2, illite clay): −4.69 ± 4.23 mV
Zeta Potential ([11]; 1 mM additive + […] CO2, montmorillonite clay): −3.20 ± 4.61 mV
Zeta Potential ([11]; 1 mM additive, illite clay): −39.5 ± 6.32 mV
Zeta Potential ([11]; 1 mM additive, montmorillonite clay): −40.2 ± 6.87 mV
Zeta Potential ([11]; 10 mM additive + […] CO2, illite clay): −3.12 ± 7.16 mV
Zeta Potential ([11]; 10 mM additive + […] CO2, montmorillonite clay): 9.07 ± 4.18 mV
Zeta Potential ([11]; 10 mM additive, illite clay): −48.2 ± 7.44 mV
Zeta Potential ([11]; 10 mM additive, montmorillonite clay): −23.6 ± 5.68 mV
Zeta Potential ([11]; 0.8 molal additive + 1 h CO2, illite clay): −4.56 mV
Zeta Potential ([11]; 0.8 molal additive + 1 h CO2, montmorillonite clay): −5.52 mV
Zeta Potential ([11]; 0.8 molal additive, illite clay): −26.0 ± 3.92 mV
Zeta Potential ([11]; 0.8 molal additive, montmorillonite clay): −25.8 ± 4.14 mV

CN(C)CC1CC(CN(C)C)CC(CN(C)C)C1 (stereo not shown) [CHTDMA, 1,1′,1″-(cyclohexane-1,3,5-triyl)tris(N,N-dimethylmethanamine)]
miscibility with water After addition of CO2 [1]: miscible
miscibility with water Before addition of CO2 [1]: immiscible

CN(C)CCN(C)CCN(C)CCN(C)C [HMTETA, 1,1,4,7,10,10-hexamethyl triethylenetetramine]
conductivity of ionic form solution after N2 flushing ([9]; 1:1 v/v H2O:amine, N2 at 80° C., after 20 minutes): close to zero

CCCN(CC)CCCCN(CC)CCC [N,N′-diethyl-N,N′-dipropyl-1,4-diaminobutane]
miscibility with water After addition of CO2 [1]: miscible
miscibility with water Before addition of CO2 [1]: immiscible

OCCN(CCO)CCN(CCO)CCO [THEED, N,N,N′,N′-tetrakis(2-hydroxyethyl) ethylenediamine]
% deprotonated ([12]; 2 hours N2 bubbling at 75° C.): 98%
% protonation ([12]; by 10 minutes CO2): 49%

Source: US10377647B2, “Systems and methods for use of water with switchable ionic strength” (Queen's University at Kingson, priority 2010, dated 2019)
